Results: PMC3760277 (Journal of neurovirology, 2013)
Read-outs that look alike come from different tables or passages of the source.

Assays:
[1] = Steady-state plasma pharmacokinetics; assay type: in vivo, HIV-infected patients (human); conditions: for AUC(0-t): AUC0–24, Visit 2 (day 21), ATV/RTV 300/100 mg once daily with CEP-1347 50 mg twice daily, arithmetic mean (SD), n=19
[2] = cited from earlier work
[3] = tested on: HIV-1; assay: Plasma viral load during the 21-day study; assay type: in vivo, HIV-infected patients (human); conditions: day 21, antiretroviral therapy (ATV/RTV + TDF/FTC) with concurrent CEP-1347 50 mg twice daily; baseline 3.80±3.70
[4] = Safety and tolerability in the clinical study; assay type: in vivo, HIV-infected patients (human); conditions: CEP-1347 50 mg twice daily for 20 days with ATV/RTV and TDF/FTC
[5] = rats; background statement, ref not given; cited from earlier work
[6] = monkeys; background statement, ref not given; cited from earlier work
[7] = CEP-1347 50 mg twice daily with ATV/r, day 21, mean (SD)

| Compound | AUC0–24 GMR (90 % CI) ([1]; human, in vivo) | Cmax GMR (90 % CI) ([1]; human, in vivo) | R GMR (90 % CI) ([1]; human, in vivo) | Tmax GMR (90 % CI) ([1]; human, in vivo) | Cmax ([1]; human, plasma, oral) [ng/mL] | half-life ([1]; human, plasma, oral) [h] | Cmax ([1]; human, plasma, oral, 50 mg) [ng/mL] | Tmax ([1]; human, plasma, oral, 50 mg) [h] | half-life ([1]; human, plasma, oral, 50 mg) [h] | AUC(0-t) ([1]; human, plasma, oral) [ng·h/mL] | other results |
| --- | --- | --- | --- | --- | --- | --- | --- | --- | --- | --- | --- |
| COC(=O)N[C@H](C(=O)N[C@@H](Cc1ccccc1)[C@@H](O)CN(Cc1ccc(-c2ccccn2)cc1)NC(=O)[C@@H](NC(=O)OC)C(C)(C)C)C(C)(C)C [ATV, Atazanavir] | 1.30 (0.92–1.85) | 1.14 (0.79–1.67) | 1.12 (1.05–1.20) | 0.86 (0.67–1.11) | 4000 | 12.7 | 4500 | 2 | 15.9 | 49600 | Clss/F ([1]; Visit 1 (day 1), ATV/RTV before CEP-1347, mean (SD)): 12.0 (10.3) L/h; Clss/F ([1]; Visit 1 (day 1), ATV/RTV before CEP-1347, mean (SD), listed as atazanavir): 12.0 L/h; Clss/F ([1]; Visit 2 (day 21), ATV/RTV with CEP-1347 50 mg twice daily, mean (SD)): 9.3 (10.7) L/h; Clss/F GMR (90 % CI) ([1]; human, in vivo): 0.77 (0.54–1.09); increase in T1/2 ([1]; human, in vivo): 31%; increase in accumulation ratio (R) ([1]; human, in vivo): 15%; Tmax ([1]; human, plasma, oral): 2 h; clearance ([2]; population analysis, patients given ATV/r at 300/100 mg/day, ref Colombo et al. 2006): 12.9 L/h; clearance ([2]; previously reported in patients, ref Haberl et al. 2010): 8.5 L/h |
| CC(C)c1nc(CN(C)C(=O)N[C@H](C(=O)N[C@@H](Cc2ccccc2)C[C@H](O)[C@H](Cc2ccccc2)NC(=O)OCc2cncs2)C(C)C)cs1 [RTV, Ritonavir] | 1.12 (0.90, 1.39) | 1.07 (0.85, 1.34) | 1.05 (0.94, 1.16) | 0.89 (0.79, 1.15) | 1400 | 5.9 | – | – | 5.8 | 13200 | T1/2 GMR (90 % CI) ([1]; human, in vivo): 1.20 (0.92, 1.56) |
| CCSCc1ccc2c(c1)c1c3c(c4c5cc(CSCC)ccc5n5c4c1n2[C@H]1C[C@](O)(C(=O)OC)[C@]5(C)O1)CNC3=O [CEP-1347] | – | – | – | – | – | – | 427 | 3 | 35.2 | – | Clss/F [1, 7]: 22.3 (15.3) L/h; R (accumulation ratio) [1, 7]: 5.1 (1.5); AUC ([1]; human, plasma, oral, 50 mg): 2630 ng·h/mL; average plasma viral load [3]: 2.41±2.03 log copies/mL; tolerability [4]: well tolerated; recovery of single oral doses in feces [5]: at least 95%; recovery of single oral doses in feces [6]: at least 95% |
